PubChem BioAssay (NCI)
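How tested: cells in 96-well plates exposed to compound for 48 hours at five concentrations. GI50: concentration for 50% inhibition of growth. Definition used: TGI = concentration required for complete inhibition of growth.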

How the values were obtained:
Assay in all cases: DTP human tumour cell line panel, 48 h
786-0 renal = test system: 786-0 renal
A549 NSCLC = test system: A549 NSCLC
ACHN renal = test system: ACHN renal
CAKI-1 renal = test system: CAKI-1 renal
CCRF-CEM leukemia = test system: CCRF-CEM leukemia
COLO 205 colon = test system: COLO 205 colon
DU-145 prostate = test system: DU-145 prostate
EKVX NSCLC = test system: EKVX NSCLC
HCC-2998 colon = test system: HCC-2998 colon
HCT-116 colon = test system: HCT-116 colon
HCT-15 colon = test system: HCT-15 colon
HOP-62 NSCLC = test system: HOP-62 NSCLC
HOP-92 NSCLC = test system: HOP-92 NSCLC
HS 578T breast = test system: HS 578T breast
HT29 colon = test system: HT29 colon
K-562 leukemia = test system: K-562 leukemia
KM12 colon = test system: KM12 colon
LOX IMVI melanoma = test system: LOX IMVI melanoma
M14 melanoma = test system: M14 melanoma
MALME-3M melanoma = test system: MALME-3M melanoma
MCF7 breast = test system: MCF7 breast
MDA-MB-231 breast = test system: MDA-MB-231 breast
MDA-MB-435 = test system: MDA-MB-435
NCI-H226 lung = test system: NCI-H226 lung
NCI-H23 lung = test system: NCI-H23 lung
NCI-H460 lung = test system: NCI-H460 lung
NCI-H522 lung = test system: NCI-H522 lung
NCI/ADR-RES ovarian = test system: NCI/ADR-RES ovarian
OVCAR-3 ovarian = test system: OVCAR-3 ovarian
OVCAR-4 ovarian = test system: OVCAR-4 ovarian
OVCAR-5 ovarian = test system: OVCAR-5 ovarian
OVCAR-8 ovarian = test system: OVCAR-8 ovarian
PC-3 prostate = test system: PC-3 prostate
RPMI-8226 leukemia = test system: RPMI-8226 leukemia
SF-268 CNS = test system: SF-268 CNS
SF-295 CNS = test system: SF-295 CNS
SK-MEL-28 melanoma = test system: SK-MEL-28 melanoma
SK-MEL-5 melanoma = test system: SK-MEL-5 melanoma
SK-OV-3 ovarian = test system: SK-OV-3 ovarian
SN12C renal = test system: SN12C renal
SNB-19 CNS = test system: SNB-19 CNS
SR leukemia = test system: SR leukemia
SW-620 colon = test system: SW-620 colon
T-47D breast = test system: T-47D breast
TK-10 renal = test system: TK-10 renal
U251 CNS = test system: U251 CNS
UACC-62 melanoma = test system: UACC-62 melanoma
UO-31 renal = test system: UO-31 renal

## Cc1cc(N(CCOS(C)(=O)=O)CCOS(C)(=O)=O)ccc1C(=O)O
786-0 renal
  GI50: > 100 µM
  TGI: > 100 µM
A549 NSCLC
  GI50: > 100 µM
  TGI: > 100 µM
ACHN renal
  GI50: 50 µM
  TGI: > 100 µM
CAKI-1 renal
  GI50: 43.7 µM
  TGI: > 100 µM
CCRF-CEM leukemia
  GI50: 67.4 µM
  TGI: > 100 µM
COLO 205 colon
  GI50: > 100 µM
  TGI: > 100 µM
DU-145 prostate
  GI50: > 100 µM
  TGI: > 100 µM
EKVX NSCLC
  GI50: > 100 µM
  TGI: > 100 µM
HCC-2998 colon
  GI50: > 100 µM
  TGI: > 100 µM
HCT-116 colon
  GI50: > 100 µM
  TGI: > 100 µM
HCT-15 colon
  GI50: > 100 µM
  TGI: > 100 µM
HOP-62 NSCLC
  GI50: > 100 µM
  TGI: > 100 µM
HOP-92 NSCLC
  GI50: 37.1 µM
  TGI: > 100 µM
HS 578T breast
  GI50: > 100 µM
  TGI: > 100 µM
HT29 colon
  GI50: > 100 µM
  TGI: > 100 µM
K-562 leukemia
  GI50: > 100 µM
  TGI: > 100 µM
KM12 colon
  GI50: > 100 µM
  TGI: > 100 µM
LOX IMVI melanoma
  GI50: 73.5 µM
  TGI: > 100 µM
M14 melanoma
  GI50: > 100 µM
  TGI: > 100 µM
MALME-3M melanoma
  GI50: > 100 µM
  TGI: > 100 µM
MCF7 breast
  GI50: 87.4 µM
  TGI: > 100 µM
MDA-MB-231 breast
  GI50: > 100 µM
  TGI: > 100 µM
MDA-MB-435
  GI50: > 100 µM
  TGI: > 100 µM
NCI-H226 lung
  GI50: > 100 µM
  TGI: > 100 µM
NCI-H23 lung
  GI50: 98.2 µM
  TGI: > 100 µM
NCI-H460 lung
  GI50: 87.6 µM
  TGI: > 100 µM
NCI-H522 lung
  GI50: 10.7 µM
  TGI: > 100 µM
NCI/ADR-RES ovarian
  GI50: > 100 µM
  TGI: > 100 µM
OVCAR-3 ovarian
  GI50: > 100 µM
  TGI: > 100 µM
OVCAR-4 ovarian
  GI50: > 100 µM
  TGI: > 100 µM
OVCAR-5 ovarian
  GI50: > 100 µM
  TGI: > 100 µM
OVCAR-8 ovarian
  GI50: > 100 µM
  TGI: > 100 µM
PC-3 prostate
  GI50: > 100 µM
  TGI: > 100 µM
RPMI-8226 leukemia
  GI50: > 100 µM
  TGI: > 100 µM
SF-268 CNS
  GI50: > 100 µM
  TGI: > 100 µM
SF-295 CNS
  GI50: > 100 µM
  TGI: > 100 µM
SK-MEL-28 melanoma
  GI50: > 100 µM
  TGI: > 100 µM
SK-MEL-5 melanoma
  GI50: > 100 µM
  TGI: > 100 µM
SK-OV-3 ovarian
  GI50: > 100 µM
  TGI: > 100 µM
SN12C renal
  GI50: > 100 µM
  TGI: > 100 µM
SNB-19 CNS
  GI50: > 100 µM
  TGI: > 100 µM
SR leukemia
  GI50: 40.7 µM
  TGI: > 100 µM
SW-620 colon
  GI50: > 100 µM
  TGI: > 100 µM
T-47D breast
  GI50: > 100 µM
  TGI: > 100 µM
TK-10 renal
  GI50: > 100 µM
  TGI: > 100 µM
U251 CNS
  GI50: > 100 µM
  TGI: > 100 µM
UACC-62 melanoma
  GI50: > 100 µM
  TGI: > 100 µM
UO-31 renal
  GI50: > 100 µM
  TGI: > 100 µM
